Assay [1] relates to crude protein extract from whole male and female bugs. The experiment in a line: Enzyme activity in crude protein extract from whole bugs. As to conditions: supernatant of homogenized male and female bugs incubated with (E,E)-FPP. Type of assay: biochemical, N. viridula. The procedure:
Enzyme Activity in Crude Protein Assay. Enzyme activity was measured in crude protein extract from whole male and female bugs to determine possible products from enzymes that accept (E,E)-FPP. The supernatant from homogenized bugs was incubated with the substrate and analyzed products extracted by hexane using GC-MS. […] Also, several sesquiterpenes were found in low abundance that were not found in assays of partially purified NvTPS.

The target in a further assay is T1, NvTPS (Nezara viridula, UniProt A0A386JV86).
T1 construct: Full-length NvTPS (NvIDS1) cDNA was cloned into the pEXP5-NT/TOPO (Invitrogen) expression vector; His tag (N-terminal histidine fusion tag from pEXP5-NT/TOPO) (N); made in house; host or cells: E. coli BL21(DE3)pLysS
T1 sequence (A0A386JV86 1-378): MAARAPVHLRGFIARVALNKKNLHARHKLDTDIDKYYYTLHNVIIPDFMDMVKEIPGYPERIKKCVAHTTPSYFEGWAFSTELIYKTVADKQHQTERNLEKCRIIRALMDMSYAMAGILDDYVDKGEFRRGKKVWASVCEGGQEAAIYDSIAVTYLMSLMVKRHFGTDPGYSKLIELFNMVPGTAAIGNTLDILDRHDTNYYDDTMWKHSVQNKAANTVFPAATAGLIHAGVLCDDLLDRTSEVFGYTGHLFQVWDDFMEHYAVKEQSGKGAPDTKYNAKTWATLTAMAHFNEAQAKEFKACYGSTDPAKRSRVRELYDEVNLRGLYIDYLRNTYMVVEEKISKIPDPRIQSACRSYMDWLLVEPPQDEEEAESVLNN
The experiment in a line: Kinetic analysis of NvTPS with [1-3H]-(E,E)-FPP. It counts as biochemical, N. viridula. The note with it: (E,E)-FPP as the substrate. The procedure:
To determine the apparent Km value of NvTPS for (E,E)-FPP, […] of recombinant protein was incubated with increasing concentrations of [1-3H]-(E,E)-FPP (64 ρCi mmol-1) in a total volume of […]. Assays were incubated at 30° C. for 5 min prior to extraction of the enzyme product with 250 μl hexane. Assays were performed in triplicate. Quantification of the radioactive product was as described by Tholl et al. (2005. Plant. J. 42:757-771). The Km value was calculated by rectangular hyperbolic regression analysis using Hyperbolic Regression Analysis software (HYPER 1.01) (J. S. Easterby, University of Liverpool).

The subject of assay [2] is crude protein extracts from tissue associated with the ventral sternites of N. viridula. The experiment in a line: Terpene synthase activity in crude protein extracts of abdominal cuticle tissue. Type of assay: biochemical. As to conditions: 50 μM (E,E)-FPP, 12 h, 30° C. The procedure: Crude Protein Extracts of N. viridula. Abdominal cuticles from one mature (14-15 days post molt) adult male and female N. viridula were used for crude protein assays. Insects were fixed with hexane vapor in a screw top jar and dissected in phosphate buffered saline (PBS) (137 mM NaCl, 8.1 mM Na2HPO4, 1.5 mM NaH2PO4, 2.7 mM KCl, pH 7.2). Head, thorax and abdominal soft tissues were removed except for epithelial cells lining the cuticle. Abdominal cuticles were then frozen in liquid nitrogen, pulverized with a mortar and pestle, and suspended in assay buffer (25 mM HEPES, 5 mM MgCl2, 10% glycerol, 1 mM DTT, pH 7). Protein concentrations were determined with a Bradford Assay (Bio-Rad, Hercules, CA) according to the manufacturer's protocol resulting in a protein concentration of 1.2 μg/μl and 0.8 μg/μl for female and male tissue, respectively.
TPS Activity Assay. To determine terpene synthase activity in crude protein extracts of male and female abdominal cuticle tissue, 50 μM (E,E)-FPP was added to protein extracts in assay buffer (see above) containing 50 µg protein at a final volume of 200 μl and with a 200 μl hexane overlay to collect volatiles. Following incubation for 12 h at 30° C., enzyme products were extracted by mixing for 15 s using a vortex and phases were separated by centrifuging at 4000×g for 10 min. One μl of the hexane extract was analyzed by GC-MS. […]

Assay [3] concerns the target T2, recombinant NvIDS1 (NvTPS) protein (Nezara viridula, UniProt A0A386JV86).
T2 construct: Full-length NvTPS (NvIDS1) cDNA was cloned into the pEXP5-NT/TOPO (Invitrogen) expression vector; His tag (N-terminal histidine fusion tag from pEXP5-NT/TOPO) (N); made in house; host or cells: E. coli BL21(DE3)pLysS
T2 sequence (A0A386JV86 1-378): T1 sequence (A0A386JV86 1-378)
The experiment in a line: TPS activity assay of purified recombinant NvTPS, products by GC-MS. The note with it: 50 μM allylic substrate, 30° C., 1 h. Type of assay: biochemical, N. viridula. The procedure: Heterologous Expression of Recombinant NvTPS.
TPS activity of purified, recombinant NvTPS protein was determined in assay buffer (see above) with 1 mM DTT and 50 μM allylic substrate [(E,E)-, (Z,E)- or (Z,Z)-FPP] in a total volume of 100 μl and with a100 μl hexane overlay. Upon incubation at 30° C. for 1 h, assays were stopped on ice and compounds extracted by mixing using a vortex at maximum speed for 15 s. Phases were separated by centrifuging at 4000×g for 10 min and the hexane phase was removed and dried over MgSO4. One μL of the hexane extract was analyzed by GC-MS.
Gas Chromatography-Mass Spectrometry Analysis and Determination of Absolute Configuration of NvTPS Products. GC-MS analysis of hexane extracts from assays with crude protein lysates or NvTPS recombinant protein was performed using split injection (5:1 ratio) at an injection temperature of 240° C. Compounds were separated on a GC-2010 gas chromatograph (Shimadzu, Kyoto, Japan) with a 30 m×0.25 mm i.d.×0.25 μm film Zebron ZB-XLB column (Phenomenex, Torrance, CA) coupled to a QP2010S mass spectrometer (Shimadzu). Separation steps were as follows: initial 2 min hold at 40° C., followed by a 5° C./min ramp to 220° C., then a 70° C./min ramp to 240° C. followed by a 2 min hold time at 240° C. Mass spectrometry was performed with a 240° C. ion source temperature, 280° C. interface temperature, electron ionization (El) potential of 70 eV, and scan range of 50 to 400 amu. Helium was used as a carrier gas at 1.9 ml/min.

Another assay has as its target NvIDS1 (NvTPS) (Nezara viridula, UniProt A0A386JV86). As to conditions: IPP and DMAPP as substrates.
In assay [4] the target is recombinant NvIDS2 (NvFPPS) (Nezara viridula, UniProt A0A386JVA3). The note with it: 50 μM IPP and 50 μM DMAPP, 30° C., 2 h, LC-MS.
Chain of recombinant NvIDS2 (NvFPPS) (A0A386JVA3 whole entry): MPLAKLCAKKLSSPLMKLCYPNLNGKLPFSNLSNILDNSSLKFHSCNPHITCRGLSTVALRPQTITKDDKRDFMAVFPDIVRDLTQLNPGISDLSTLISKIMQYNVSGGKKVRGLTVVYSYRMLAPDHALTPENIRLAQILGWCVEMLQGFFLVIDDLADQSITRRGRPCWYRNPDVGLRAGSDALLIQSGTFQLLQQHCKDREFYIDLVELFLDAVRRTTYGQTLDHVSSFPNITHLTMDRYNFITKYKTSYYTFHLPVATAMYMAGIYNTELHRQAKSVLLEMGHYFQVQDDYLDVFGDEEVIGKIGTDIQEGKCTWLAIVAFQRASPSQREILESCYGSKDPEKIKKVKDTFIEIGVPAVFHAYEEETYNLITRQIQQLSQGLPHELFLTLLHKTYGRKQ
Description: In preparation for enzyme assays, a buffer exchange to 25 mM 3-(N-morpholino)-2-hydroxypropanesulfonic acid (MOPSO, pH 7.2, 10% [v/v] glycerol, 1 mM DTT, 5 mM MgCl2) was conducted on PD-10 Desalting Columns (GE Healthcare Life Sciences, Pittsburgh, PA).
IDS Activity Assay and Analysis. […] Upon incubation at 30° C. for 2 h, IDS enzyme products were analyzed on an Agilent 1260 HPLC system (Agilent Technologies) coupled to an API 5000 triple-quadrupole mass spectrometer (AB Sciex Instruments) following the protocol described by Beran et al. 2016.

One may read the Km as the substrate concentration at which the rate is half of its maximum.

`CC(C)=CCC/C(C)=C/CC/C(C)=C/COP(=O)(O)OP(=O)(O)O` [(E,E)-FPP, (E,E)-farnesyl diphosphate]: the “products in crude protein extract from whole bugs, GC-MS” value in assay [1] is given as “(Z)-α-bisabolene present in crude protein from males but not females”. Moreover, the Vmax at NvTPS came to 11.83±2.14 pkat/mg. In addition, on NvTPS (30° C., 5 min, triplicate, read-out: apparent Km value), the Michaelis constant (Km) was determined as 0.95 ± 0.37 µM. The “TPS activity in crude protein extract, products by GC-MS” value in assay [2] (extracts from mature females) is on record as “only little activity”; in assay [2] (extracts from mature males), “formation of (Z)-α-bisabolene”. Moreover, in assay [3], the “enzymatic products of NvIDS1 (TPS activity)” value is given as “(Z)-α-bisabolene as the main product”.
`CC(C)=CCC/C(C)=C/CC/C(C)=C\COP(=O)(O)OP(=O)(O)O` [(Z,E)-FPP]: the “enzymatic products of NvIDS1 (TPS activity)” value in assay [3] is listed as “No enzymatic products were detected”.
Still for that read-out and setting: under `CC(C)=CCC/C(C)=C\CC/C(C)=C\COP(=O)(O)OP(=O)(O)O` [(Z,Z)-FPP] stands “No enzymatic products were detected”.
For isopentenyl diphosphate [IPP], the “IDS activity of NvIDS1” value on NvIDS1 (NvTPS) is given as “no activity was observed”. In assay [4], the “IDS product of NvIDS2” value is listed as “(E,E)-FPP as the sole product”.
